{"source": "patent EP0799174B1", "about": "“BIOCIDAL ALCOHOLS, THEIR PRODUCTION AND THEIR USE” (SCHÜLKE & MAYR GMBH, priority 1994, dated 1996)", "key": {"[1]": {"test_system": "resident skin flora", "experiment": "Skin antiseptic a): action against the resident skin flora", "type": "in vivo", "settings": "formulation with 1.0% aromatic alcohol in 1-propanol 30.0%, 2-propanol 45.0%; concentration and time"}, "[2]": {"test_system": "Candida albicans ATCC 10231", "experiment": "Skin antiseptic b): quantitative suspension test according to DGHM", "type": "cell-based", "settings": "1.0% 8, formulation 1-propanol 15.0%, 2-propanol 30.0%", "description": "(§1) • 1-propanol 15.0% • 2-propanol 30.0% • aromatic alcohol 1.0% • dem. water to 100 [table]"}, "[3]": {"test_system": "Staphylococcus aureus ATCC 6538", "experiment": "Skin antiseptic b): quantitative suspension test according to DGHM", "type": "cell-based", "settings": "1.0% 8, formulation 1-propanol 15.0%, 2-propanol 30.0%", "description": "as §1"}, "[4]": {"test_system": "Pseudomonas aeruginosa ATCC 15442", "experiment": "Skin antiseptic b): quantitative suspension test according to DGHM", "type": "cell-based", "settings": "1.0% 8, formulation 1-propanol 15.0%, 2-propanol 30.0%", "description": "as §1"}, "[5]": {"test_system": "Ps. aeruginosa", "experiment": "Quantitative surface test according to DGHM, alcoholic surface disinfectant", "type": "cell-based", "settings": "additive (0.05% for single substances) in ethanol 25.0 % / 1-propanol 35.0 % formulation, germs deposited after approx. 20 minutes", "description": "Standard formulation: • ethanol (MEK denatured) 25.0 % • 1-propanol 35.0 % • perfume 0.02 % • benzotriazole 0.001 % • Marlipal 013/70 0.1% (isotridecanpolyethyleneglycol-(7)-ether = C13 oxo alcohol + 7 mol ethylene oxide) • active ingredient additive x% • dem. water to 100 Test germ: Ps. aeruginosa Test method:\nQuantitative surface test according to DGHM (Deutsche Gesellschaft für Hygiene and Microbiology = German Association for Hygiene and Microbiology). In order to exclude the effectiveness of the readily volatile alcohol components (ethanol, 1-propanol), the preparations were deposited onto the surfaces and the germs were deposited after approx. 20 minutes. Test surfaces: PVC and OP tiles Data as reduction factors (log stages)"}, "[6]": {"test_system": "Germ mixture of Staphylococcus aureus, Staphylococcus epidermis, Escherichia coli, Klebsiella pneumoniae, Enterobacter gergoviae, Pseudomonas aeruginosa …", "experiment": "Preservative test: weekly loading of the sample with germ suspension", "type": "cell-based", "settings": "aromatic alcohol 0.5% in sulfosuccinate 12.0% / betaine 3.0% formulation", "description": "Standard formulation: • sulfosuccinate 12.0% • betaine 3.0% • aromatic alcohol 0.5% • re-fatting agent • skin care additives • thickener • dem. water to 100 Test germs: Germ mixture of Staphylococcus aureus, Staphylococcus epidermis, Escherichia coli, Klebsiella pneumoniae, Enterobacter gergoviae, Pseudomonas aeruginosa, Pseudomonas fluorescens, Pseudomonas putida, Aspergillus niger, Penicillium funiculosum, Candida albicans; Total germ count 10^8-10^9/ml. Test method: weekly loading of the sample with germ suspension; smear onto CS and Sabouraud agar. See also K.-H. Diehl, P. Oltmanns, J. Ramsbotham, Seife, Öle, Fette, Wachse 118 (1992) 546.\nData expressed semi-qualitatively: • - no growth < 10^2 CFU/g (CFU = colony-forming units) • + slight growth approx. 10^3 CFU/g • ++ moderate growth approx. 10^4-10^5 CFU/g • +++ heavy growth > 10^5 CFU/g"}}, "data": [{"smiles": "CCCCCC(=Cc1ccccc1)CO", "note": "[Alcohol 8, α-amyl cinnamyl alcohol]", "values": [{"measurement": "action against the resident skin flora", "setting": "[1]", "result": "100%, 15 seconds"}, {"measurement": "reduction factors (log stages)", "setting": "[2]; column 25, contact time 1'", "result": 0.6, "unit": "log stages"}, {"measurement": "reduction factors (log stages)", "setting": "[2]; column 25, contact time 2'", "result": 1.1, "unit": "log stages"}, {"measurement": "reduction factors (log stages)", "setting": "[2]; column 25, contact time 5'", "result": 1.7, "unit": "log stages"}, {"measurement": "reduction factors (log stages)", "setting": "[2]; column 25, contact time 30\"", "result": 0.5, "unit": "log stages"}, {"measurement": "reduction factors (log stages)", "setting": "[2]; column 50, contact time 1'", "result": 3.5, "unit": "log stages"}, {"measurement": "reduction factors (log stages)", "setting": "[2]; column 50, contact time 2'", "result": ">4.9", "unit": "log stages"}, {"measurement": "reduction factors (log stages)", "setting": "[2]; column 50, contact time 5'", "result": ">5.1", "unit": "log stages"}, {"measurement": "reduction factors (log stages)", "setting": "[2]; column 50, contact time 30\"", "result": 2.7, "unit": "log stages"}, {"measurement": "reduction factors (log stages)", "setting": "[2]; column 75, contact time 1'", "result": ">4.6", "unit": "log stages"}, {"measurement": "reduction factors (log stages)", "setting": "[2]; column 75, contact time 2'", "result": ">4.9", "unit": "log stages"}, {"measurement": "reduction factors (log stages)", "setting": "[2]; column 75, contact time 5'", "result": ">5.1", "unit": "log stages"}, {"measurement": "reduction factors (log stages)", "setting": "[2]; column 75, contact time 30\"", "result": ">4.6", "unit": "log stages"}, {"measurement": "reduction factors (log stages)", "setting": "[3]; column 25, contact time 1'", "result": 3.6, "unit": "log stages"}, {"measurement": "reduction factors (log stages)", "setting": "[3]; column 25, contact time 2'", "result": 4.7, "unit": "log stages"}, {"measurement": "reduction factors (log stages)", "setting": "[3]; column 25, contact time 5'", "result": ">5.8", "unit": "log stages"}, {"measurement": "reduction factors (log stages)", "setting": "[3]; column 25, contact time 30\"", "result": 2.8, "unit": "log stages"}, {"measurement": "reduction factors (log stages)", "setting": "[3]; column 50, contact time 1'", "result": ">5.5", "unit": "log stages"}, {"measurement": "reduction factors (log stages)", "setting": "[3]; column 50, contact time 2'", "result": ">5.9", "unit": "log stages"}, {"measurement": "reduction factors (log stages)", "setting": "[3]; column 50, contact time 5'", "result": ">5.8", "unit": "log stages"}, {"measurement": "reduction factors (log stages)", "setting": "[3]; column 50, contact time 30\"", "result": ">5.6", "unit": "log stages"}, {"measurement": "reduction factors (log stages)", "setting": "[3]; column 75, contact time 1'", "result": ">5.5", "unit": "log stages"}, {"measurement": "reduction factors (log stages)", "setting": "[3]; column 75, contact time 2'", "result": ">5.9", "unit": "log stages"}, {"measurement": "reduction factors (log stages)", "setting": "[3]; column 75, contact time 5'", "result": ">5.8", "unit": "log stages"}, {"measurement": "reduction factors (log stages)", "setting": "[3]; column 75, contact time 30\"", "result": ">5.6", "unit": "log stages"}, {"measurement": "reduction factors (log stages)", "setting": "[4]; column 25, contact time 1'", "result": 0, "unit": "log stages"}, {"measurement": "reduction factors (log stages)", "setting": "[4]; column 25, contact time 2'", "result": 0, "unit": "log stages"}, {"measurement": "reduction factors (log stages)", "setting": "[4]; column 25, contact time 5'", "result": 0, "unit": "log stages"}, {"measurement": "reduction factors (log stages)", "setting": "[4]; column 25, contact time 30\"", "result": 0, "unit": "log stages"}, {"measurement": "reduction factors (log stages)", "setting": "[4]; column 50, contact time 1'", "result": ">5.8", "unit": "log stages"}, {"measurement": "reduction factors (log stages)", "setting": "[4]; column 50, contact time 2'", "result": ">5.7", "unit": "log stages"}, {"measurement": "reduction factors (log stages)", "setting": "[4]; column 50, contact time 5'", "result": ">5.7", "unit": "log stages"}, {"measurement": "reduction factors (log stages)", "setting": "[4]; column 50, contact time 30\"", "result": ">5.6", "unit": "log stages"}, {"measurement": "reduction factors (log stages)", "setting": "[4]; column 75, contact time 1'", "result": ">5.8", "unit": "log stages"}, {"measurement": "reduction factors (log stages)", "setting": "[4]; column 75, contact time 2'", "result": ">5.7", "unit": "log stages"}, {"measurement": "reduction factors (log stages)", "setting": "[4]; column 75, contact time 5'", "result": ">5.7", "unit": "log stages"}, {"measurement": "reduction factors (log stages)", "setting": "[4]; column 75, contact time 30\"", "result": ">5.6", "unit": "log stages"}]}, {"smiles": "OCCCc1ccccc1", "note": "[Alcohol 1, 3-phenyl propanol, reference compound]", "values": [{"measurement": "reduction factors (log stages)", "setting": "[5]; PVC, 30'", "result": 0, "unit": "log stages"}, {"measurement": "reduction factors (log stages)", "setting": "[5]; PVC, 60'", "result": 0, "unit": "log stages"}, {"measurement": "reduction factors (log stages)", "setting": "[5]; PVC, 240'", "result": 0, "unit": "log stages"}, {"measurement": "reduction factors (log stages)", "setting": "[5]; Tiles, 30'", "result": 0, "unit": "log stages"}, {"measurement": "reduction factors (log stages)", "setting": "[5]; Tiles, 60'", "result": 0, "unit": "log stages"}, {"measurement": "reduction factors (log stages)", "setting": "[5]; Tiles, 240'", "result": 0, "unit": "log stages"}, {"measurement": "growth, 1st week", "setting": "[6]; 1st week", "result": "+ (slight growth approx. 10^3 CFU/g)"}, {"measurement": "growth, 2nd week", "setting": "[6]; 2nd week", "result": "+ (slight growth approx. 10^3 CFU/g)"}, {"measurement": "growth, 3rd week", "setting": "[6]; 3rd week", "result": "- (no growth < 10^2 CFU/g)"}, {"measurement": "growth, 4th week", "setting": "[6]; 4th week", "result": "- (no growth < 10^2 CFU/g)"}, {"measurement": "growth, 5th week", "setting": "[6]; 5th week", "result": "- (no growth < 10^2 CFU/g)"}]}]}
